Assay results reported in patent publication US4439614A, “5,6-Methano-5,6-dihydroretinoids” (SRI International, priority 1982, dated 1984).

Legend:
[1] = system: Ornithine Decarboxylase; conditions: prior-art epoxides; ODC induction in mouse epidermis by tumor-promoting phorbol esters; cited from earlier work
[2] = system: Hamster Tracheal Organ Culture; assay: Reversal of keratinization in hamster tracheal organ culture; format: cell-based
Description: (§1) The ODC assay measures a compound's effect on the prevention of the induction of ODC. The tracheal organ culture assay measures a compound's ability to reverse keratinization. For comparison purposes retinoic acid was also tested by these assays.
The tracheal organ culture assay is carried out as follows. Tracheas are taken from hamsters that are in very early stages of vitamin A deficiency and placed in organ culture. At the time of culture, the animals are still gaining weight; the tracheal epithelium is generally low columnar or cuboidal, with only occasional patches of squamous metaplasia. […] All tracheas are grown in medium containing no retinoid for the first 3 days. […] Culture medium is changed three times a week, and all of the remaining tracheas are harvested at the end of 10 days in culture. Tracheas are fixed in 10% buffered formalin and embedded in paraffin.

[3] = system: Ornithine Decarboxylase; assay: Inhibition of induction of ornithine decarboxylase (ODC assay) by 12-O-tetradecanoylphorbol-13-acetate in mouse skin; format: in vivo; conditions: topical, 1 hour before TPA (17 nmol), CD-1 mice
Description: as §1
The ODC assay is carried out as follows. Female Charles River CD-1 mice from Charles River Breeding Laboratories, Wilmington, Mass., are used (age 7 to 9 weeks). The dorsal hair of the mice is shaved 1 to 2 days before testing, and only mice showing no hair regrowth are used. […] The mice are killed by cervical dislocation five hours after TPA treatment. Determinations are done in triplicate.
The epidermis is obtained from the sacrificed animals. To obtain sufficient material, the dorsal skins from 2 to 3 mice in each treatment group are pooled. The depilatory agent Nudit® (Helena Rubinstein, New York) is applied to the shaved area of the skin; after 5 minutes, it is washed off thoroughly with cold tap water. Then the skin is excised and plunged immediately into ice-cold water; it is then placed in a 55° C. water bath for 30 seconds and reimmersed in ice-cold water for at least another 30 seconds.
The supernatant fraction remaining after centrifugation of the homogenate at 10,000×g for 30 seconds at 0° C. is used for the enzyme assay. Enzyme activity is determined using the microassay for ODC as described by Verma and Boutwell to measure the release of ^14 CO2 from DL-[1-^14 C]-ornithine (58 mCi/mmol) after incubation with the 10,000×g supernatant. The incubations are carried out by decanting, with a Pasteur pipette, 100 μL of the supernatant containing 100 to 120 μg of protein into two or three 15-mL Corex tubes in a shaking water bath at 37° C.

Structure (SMILES) | biological activity in the ornithine decarboxylase (ODC) assay [1] | Active Cultures (%) (reversal of keratinization) ([2]; conc 10^-8 M) | Active/Total Cultures (reversal of keratinization) ([2]; conc 10^-8 M) | Active Cultures (%) (reversal of keratinization) ([2]; conc 10^-9 M) | Active/Total Cultures (reversal of keratinization) ([2]; conc 10^-9 M) | Active Cultures (%) (reversal of keratinization) ([2]; conc 10^-10 M) | Active/Total Cultures (reversal of keratinization) ([2]; conc 10^-10 M) | Active Cultures (%) (reversal of keratinization) ([2]; conc 10^-11 M) | Active/Total Cultures (reversal of keratinization) ([2]; conc 10^-11 M) | % Inhibition of Control (inhibition of induction of ornithine decarboxylase by TPA in mouse skin) ([3]; dose 17 nmol) [%] | % Inhibition of Control (inhibition of induction of ornithine decarboxylase by TPA in mouse skin) ([3]; dose 1.7 nmol)
CC(/C=C/C12OC1(C)CCCC2(C)C)=C\C=C\C(C)=C\C(=O)O (stereo not drawn) [5,6-epoxy-5,6-dihydroretinoic acid] | exhibited biological activity | – | – | – | – | – | – | – | – | – | –
CCOC(=O)c1ccc(/C=C(\C)C=CC23OC2(C)CCCC3(C)C)cc1 (stereo not drawn) [(E)-1-(4-carbethoxy)-2-methyl-4-(1,2-epoxy-2,6,6,-trimethylcyclohex-1-yl)-1,3-butadiene] | exhibited biological activity | – | – | – | – | – | – | – | – | – | –
CCOC(=O)c1ccc(/C=C(C)/C=C/C23CC2(C)CCCC3(C)C)cc1 (stereo not drawn) [(E)-1-(4-carbethoxyphenyl)-2-methyl-4-(2,2,6-trimethylbicyclo[4.1.0]hept-1-yl)-1,3-butadiene] | – | 100 | 7/7 | 77 | 10/13 | 29 | 4/14 | 29 | 2/7 | 80 | –
CC1=C(/C=C/C(C)=C/C=C/C(C)=C/C(=O)O)C(C)(C)CCC1 [(E)-retinoic acid, reference compound] | – | 100 | 236/236 | 88 | 419/474 | 52 | 134/256 | – | – | – | 87-91%
CCOC(=O)/C=C(C)/C=C/C=C(C)/C=C/C12CC1(C)CCCC2(C)C (stereo not drawn) [ethyl (E)-5,6-methano-5,6-dihydroretinoate] | – | 100 | 7/7 | 79 | 11/14 | 50 | 7/14 | 29 | 2/7 | 70 | –
